Reference: article PMC3314985 (Neuromuscular Disorders, 2012)
Where two headings read alike, the source gives them in different places.

Legend:
[1] = system: skeletal muscle sodium channels (native Nav1.4); settings: use-dependent block at 10 Hz frequency; cited from earlier work
[2] = system: skeletal muscle sodium channels (native Nav1.4); experiment: Tonic and use-dependent block of sodium currents; format: cell-based, Rana Esculenta; settings: for eudismic ratio [IC50 distomer/IC50 eutomer]: 10 Hz use-dependent block
[3] = system: human serum albumin; settings: cited from earlier work
[4] = system: hNav1.4; settings: heterologously expressed; cited from earlier work
[5] = system: hNav1.7; settings: heterologously expressed; cited from earlier work
[6] = system: pain threshold; settings: rat, oxaliplatin-induced neuropathic pain; cited from earlier work

Cc1cccc(C)c1NC(=O)C1CCCN1 (stereo not drawn) [To5, N-(2,6-dimethylphenyl)pyrrolidine-2-carboxamide]
eudismic ratio [IC50 distomer/IC50 eutomer] [1]: > 3

Cc1cccc(C)c1NC(=O)C1CCCCN1Cc1ccccc1 (stereo not drawn) [To35, 1-benzyl-N-(2,6-dimethylphenyl)piperidine-2-carboxamide]
fold less potent than To31 in tonic block ([2]; tonic block): 4 fold | fold less potent than To31 in use-dependent block ([2]; use-dependent block): 8 fold

Cc1cc(C)c(C)c(NC(=O)C2CCN(Cc3ccccc3)C2)c1C (stereo not drawn) [To15, 1-benzyl-N-(2,3,5,6-tetramethylphenyl)pyrrolidine-3-carboxamide]
binding activity to human serum albumin [3]: high binding activity

O=C(Nc1ccc(Cl)cc1)C1CCN(Cc2ccccc2)C1 (stereo not drawn) [To14, 1-benzyl-N-(4-chlorophenyl)pyrrolidine-3-carboxamide]
fold less potent than To10 during use-dependent blockade [2]: 4–5 fold

O=C(Nc1ccccc1)C1CCN(Cc2ccccc2)C1 (stereo not drawn) [To13, 1-benzyl-N-phenylpyrrolidine-3-carboxamide]
fold less potent than To10 during use-dependent blockade [2]: 4–5 fold

Cc1cccc(C)c1NC(=O)C1CCN(Cc2ccccc2)C1 (racemic) [To10, 1-benzyl-N-(2,6-dimethylphenyl)pyrrolidine-3-carboxamide]
eudismic ratio [IC50 distomer/IC50 eutomer] [2]: 1.3 | use-dependent block of hNav1.4 [4]: potent use-dependent blocker | use-dependent block of hNav1.7 [5]: potent use-dependent blocker | reverting the reduction of the pain threshold [6]: more potent than tocainide

Cc1cccc(C)c1NC(=O)C1CN(Cc2ccccc2)CCN1 (stereo not drawn) [To32, 4-benzyl-N-(2,6-dimethylphenyl)piperazine-2-carboxamide]
ratio IC50TB/IC50 UDB ([2]; tonic block vs use-dependent block): around 12

Cc1cccc(C)c1NC(=O)C1CCCN1Cc1ccccc1 (racemic) [To11, 1-benzyl-N-(2,6-dimethylphenyl)pyrrolidine-2-carboxamide]
eudismic ratio [IC50 distomer/IC50 eutomer] [2]: greater than 3
